Patent US6409996B1, “Composition comprising one or more flavonoids, method of obtaining such composition and use thereof as UV-absorbing agent” (Flavone Sunproducts A/S, priority 1997, dated 2002)

Test: solubility experiment in water at room temperature
Format: physicochemical
Experimental: A solubility experiment was carried out in which commercially available naringin was dissolved in water at room temperature. The naringin was dissolved in an amount of 0.1 g/l corresponding to around 0.01 weight-%. A pulverous test sample of a composition obtained from Citrus Aurantium by the method according to the invention and comprising about 20 weight-% naringin was also dissolved in water at room temperature. The composition was dissolved in an amount of […], corresponding to a […] solution of naringin weight-%. Accordingly the solubility of naringin is 300 times higher in water when obtained by the method according to the invention and being in the composition obtained from Citrus Aurantium by said method, than commercially available naringin.

## C[C@@H]1O[C@@H](O[C@H]2[C@H](Oc3cc(O)c4c(c3)O[C@H](c3ccc(O)cc3)CC4=O)O[C@H](CO)[C@@H](O)[C@@H]2O)[C@H](O)[C@H](O)[C@H]1O [naringin, naringenin-7β-neohesperidoside; 5,7,4′-trihydroxyflavanone-7β-neohesperidoside]
  amount dissolved in water: 0.1 g/L
Commercially available naringin
  amount dissolved in water, as weight-%: around 0.01 weight-%
